The subject of test [1] is E. coli DH5α empty pLBII vector control strain. Description: microbe, parasite or virus in culture. Format: cell-based, Escherichia coli. The note with it: for MIC: Escherichia coli, read-out: Microbiological Activity (MIC in mg/L), E. coli DH5α/pLBII. As to the method: Briefly, cryo-preserved bacterial cultures of challenge strains are streaked for isolation on appropriate agar medium, in this case Mueller Hinton II agar. Following incubation to allow growth of the colonies, plates are sealed with parafilm and stored refrigerated for up to two weeks. For preparation of assay inoculum and to ensure low variability, at least 5 colonies are picked from the agar plates with an inoculating loop and aseptically transferred to a culture tube containing 3 mL of Mueller-Hinton Broth (supplemented with divalent cations to required levels based on Manufacturers' certification). The broth culture is grown for 3-5 hours at 37° C. with shaking at 200 rpm. Meanwhile, 2-fold serial dilutions of test compounds are conducted in a 96 well plate with a final volume of 75 μL per well at 2-fold the final desired concentration. After the dilution plates are set up the growing cultures are then diluted in a cuvette containing MH II broth and the optical density is measured at 600 nm. The Inoculum is diluted such that 75 μL of this culture in Mueller-Hinton Broth results in a starting bacterial concentration of 5×10^5 CFU/mL when added to the dilution plates. The plates are incubated for 16-20 hours at 37° C. The MIC values are read visually as the lowest concentration well with no bacterial growth.
To determine if test compounds were affected by CTX-M15, the most abundant extended spectrum […] in clinical settings worldwide, the inhibition of the growth of an engineered strain of Escherichia coli harboring CTX-M15 was tested. This strain was constructed by cloning the gene encoding CTX-M15 into the NdeI and BamHI restriction endonuclease sites of plasmid pLBII, placing the gene(s) under the control of the Lac promoter. The constructed expression plasmid for CTX-M15 was used to transform competent E. coli DH5α cells to make the engineered strain, including an empty pLBII vector control strain. The classic cell based broth microdilution MIC assay was employed as described above with the addition of control antibiotics, known to be degraded by β-lactamases (Ceftazidime, piperacillin and piperacillin+tazobactam).

Test [2] concerns engineered strain of Escherichia coli harboring CTX-M15. Description: microbe, parasite or virus in culture. Format: cell-based. The note with it: for MIC: Escherichia coli, read-out: Microbiological Activity (MIC in mg/L), E. coli DH5α/pLBII-CTX-M15, engineered strain producing CTX-M15.
In the next test the target is E. coli PBP3 (Escherichia coli (strain K12), UniProt P0AD68). Description: E. coli PBP3 Bocillin-FL fluorescence polarization competition binding assay. A digest of the protocol: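 Steps: purified PBP (1.5 μM final) mixed with compound (0–1000 μM) in 50 mM Hepes pH 8.0, 300 mM NaCl, 5% glycerol; Bocillin-FL added to 0.1 μM; FP (ex 490, em 520 nm) followed for 60 min. Concentration reducing Bocillin-FL binding reported as EC50.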
E. coli PBP3, sequence (P0AD68 whole entry): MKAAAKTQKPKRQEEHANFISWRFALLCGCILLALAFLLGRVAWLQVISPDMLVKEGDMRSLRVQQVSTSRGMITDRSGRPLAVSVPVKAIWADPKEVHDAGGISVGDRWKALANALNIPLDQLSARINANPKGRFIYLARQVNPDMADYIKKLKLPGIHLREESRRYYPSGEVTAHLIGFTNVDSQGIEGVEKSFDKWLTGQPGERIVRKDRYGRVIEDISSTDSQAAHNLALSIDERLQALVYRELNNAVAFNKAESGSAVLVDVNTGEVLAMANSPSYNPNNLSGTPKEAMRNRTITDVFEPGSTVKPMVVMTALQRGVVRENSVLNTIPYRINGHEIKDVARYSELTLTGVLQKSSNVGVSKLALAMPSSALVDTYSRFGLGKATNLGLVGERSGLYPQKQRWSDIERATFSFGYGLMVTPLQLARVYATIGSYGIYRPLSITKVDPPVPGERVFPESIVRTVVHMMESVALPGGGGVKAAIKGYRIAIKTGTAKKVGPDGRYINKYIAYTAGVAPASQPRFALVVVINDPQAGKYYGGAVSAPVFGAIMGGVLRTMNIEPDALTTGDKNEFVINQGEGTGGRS
Background: Fluorescence polarisation rises when a labelled molecule tumbles more slowly, as on binding a larger partner.

A further test concerns E. coli AG100A. Description: microbe, parasite or virus in culture. The class given is cell-based. The settings on record: Escherichia coli, read-out: MIC E. coli AG100A. A digest of the protocol:
(§1)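 Visual MIC readout after 16-20 h at 37° C in CLSI-format microdilution. Compounds tested as 2-fold series against a 5×10^5 CFU/mL inoculum in cation-supplemented Mueller-Hinton broth.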

In a further test the test system is E. coli 901C. Description: microbe, parasite or virus in culture. Format: cell-based. The note with it: Escherichia coli; hyper-permeable E. coli 901C, broth microdilution; read-out: MIC E. coli 901C. In a few lines:
as §1
(In general: Dilution methods test growth across graded concentrations, often in twofold steps.)

The test system of another test is K. pneumoniae UMM. Description: microbe, parasite or virus in culture. Format: cell-based. The settings on record: Klebsiella pneumoniae; K. pneumoniae UMM producing SHV-5 and KPC-2; read-out: MIC K. pneumoniae UMM. In a few lines: as §1
The next test deals with E. coli ATCC 25922. Description: Broth microdilution MIC, E. coli ATCC 25922. The settings on record: Escherichia coli, ATCC25922, read-out: MIC E. coli 25922. The class given is cell-based. In a few lines:
as §1

The next test deals with E. coli AG100. Description: Broth microdilution MIC, E. coli AG100 (wild-type parent). Format: cell-based. The settings on record: Escherichia coli; wild-type parent E. coli AG100, broth microdilution; read-out: MIC E. coli AG100. A digest of the protocol:
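Starting inoculum of 5×10^5 CFU/mL, from colonies grown 3-5 h in Mueller-Hinton broth with divalent cations, added to two-fold compound dilution series.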

Structures are written as SMILES. In brackets after ≈: the same amount, converted by molar mass. Structures can show the parent of a compound that is named as a salt.

From patent US12173018B2, “Penicillin-binding protein inhibitors” (priority 2018, dated 2024) come the findings set out here.

For the compound `CCN1CCN(C(=O)NC(C)(CCO)C(=O)N[C@H]2Cc3cccc(C(=O)O)c3OB2O)C(=O)C1=O` (stereo partly drawn) [Example 12, (3R)-3-(2-(4-ethyl-2,3-dioxopiperazine-1-carboxamido)-4-hydroxy-2-methylbutanamido)-2-hydroxy-3,4-dihydro-2H-benzo[e][1,2]oxaborinine-8-carboxylic acid], the MIC in test [1] and in test [2] was above 512 mg/L in each case.
Turning to `CCN1CCN(C(=O)NC(C(=O)N[C@H]2Cc3cccc(C(=O)O)c3OB2O)c2cc(OC)c(OC)c(OC)c2)C(=O)C1=O` (stereo partly drawn) [Example 30, (3R)-3-(2-(4-ethyl-2,3-dioxopiperazine-1-carboxamido)-2-(3,4,5-trimethoxyphenyl)acetamido)-2-hydroxy-3,4-dihydro-2H-benzo[e][1,2]oxaborinine-8-carboxylic acid], the MIC in test [1] and in test [2] was above 512 mg/L in each case.
`CCN1CCN(C(=O)N2CC(CN)(C(=O)N[C@H]3Cc4cccc(C(=O)O)c4OB3O)C2)C(=O)C1=O` [Example 14, (R)-3-(3-(aminomethyl)-1-(4-ethyl-2,3-dioxopiperazine-1-carbonyl)azetidine-3-carboxamido)-2-hydroxy-3,4-dihydro-2H-benzo[e][1,2]oxaborinine-8-carboxylic acid, trifluoroacetic acid salt]: the MIC in test [1] and in test [2] was above 512 mg/L in each case.
As to `CCN1CCN(C(=O)NCC(CN)(CO)C(=O)N[C@H]2Cc3cccc(C(=O)O)c3OB2O)C(=O)C1=O` (stereo partly drawn) [Example 15, (3R)-3-(3-amino-2-((4-ethyl-2,3-dioxopiperazine-1-carboxamido)methyl)-2-(hydroxymethyl)propanamido)-2-hydroxy-3,4-dihydro-2H-benzo[e][1,2]oxaborinine-8-carboxylic acid, trifluoroacetic acid salt], the MIC in test [1] and in test [2] was above 512 mg/L in each case.
The term EC50 denotes the concentration that produces a half-maximal response. Higher therefore signals a need for much substance. Turning to `CCN1CCN(C(=O)NC(C(=O)N[C@H]2Cc3cccc(C(=O)O)c3OB2O)c2csc(N)n2)CC1=O` (stereo partly drawn) [Example 18, (3R)-3-(2-(2-aminothiazol-4-yl)-2-(4-ethyl-3-oxopiperazine-1-carboxamido)acetamido)-2-hydroxy-3,4-dihydro-2H-benzo[e][1,2]oxaborinine-8-carboxylic acid], the MIC in test [1] and in test [2] was 128 to 256 mg/L (≈ 248 to 496 µM) each time. The same compound came in with an EC50 at E. coli PBP3 of 30 to 500 µM.
With `CCN1CCN(C(=O)C[C@@H](N)C(=O)N[C@H]2Cc3cccc(C(=O)O)c3OB2O)C(=O)C1=O` [Example 32, (R)-3-((R)-2-amino-4-(4-ethyl-2,3-dioxopiperazin-1-yl)-4-oxobutanamido)-2-hydroxy-3,4-dihydro-2H-benzo[e][1,2]oxaborinine-8-carboxylic acid], the MIC in test [1] and in test [2] was above 512 mg/L throughout.
With `CCN1CCN(C(=O)N2C[C@@H](O)C[C@@H]2C(=O)N[C@H]2Cc3cccc(C(=O)O)c3OB2O)C(=O)C1=O` [Example 9, (R)-3-((2R,4S)-1-(4-ethyl-2,3-dioxopiperazine-1-carbonyl)-4-hydroxypyrrolidine-2-carboxamido)-2-hydroxy-3,4-dihydro-2H-benzo[e][1,2]oxaborinine-8-carboxylic acid], the MIC with E. coli AG100A was above 128 µg/mL; with E. coli 901C, above 128 µg/mL; in the test with K. pneumoniae UMM, above 128 µg/mL; in the test on E. coli ATCC 25922 it was above 128 µg/mL; in test [1], above 512 mg/L; with E. coli AG100, above 128 µg/mL. Moreover, in test [2], the MIC is above 512 mg/L.
On to `CCN1CCN(C(=O)N[C@@H](C(=O)N[C@@H]2C(=O)N3[C@@H]2SC(C)(C)[C@@H]3C(=O)O)c2ccccc2)C(=O)C1=O` [piperacillin, reference compound], for which, in test [1], the “Microbiological Activity (MIC in mg/L), E. coli DH5α/pLBII” value is recorded as “F (F represents an MIC<1 μg/mL)”. Besides, the “MIC in CTX-M15 producer compared with parent strain with empty pLBII plasmid” value in test [2] (engineered E. coli DH5α with CTX-M15 vs empty vector control) is “weaker MICs in the CTX-M15 producer”. For the same compound, the “Microbiological Activity (MIC in mg/L), E. coli DH5α/pLBII-CTX-M15” value in test [2] (engineered strain producing CTX-M15) is listed as “B (B represents an MIC of 128 to 256 μg/mL)”.
Consider `CCN1CCN(C(=O)N[C@H](C(=O)N[C@H]2Cc3cccc(C(=O)O)c3OB2O)c2ccc(O)c(O)c2)C(=O)C1=O` [Example 38, (R)-3-((S)-2-(3,4-dihydroxyphenyl)-2-(4-ethyl-2,3-dioxopiperazine-1-carboxamido)acetamido)-2-hydroxy-3,4-dihydro-2H-benzo[e][1,2]oxaborinine-8-carboxylic acid], for which the MIC in test [1] and in test [2] was 2 to 4 mg/L (≈ 3.7 to 7.4 µM) each time. For the same compound, at E. coli PBP3, the EC50 fell in the range of 30 to 500 µM.
As for `CCN1CCN(C(=O)NC(C(=O)N[C@H]2Cc3cccc(C(=O)O)c3OB2O)c2ccc(OC)c(OC)c2)C(=O)C1=O` (stereo partly drawn) [Example 21, (3R)-3-(2-(3,4-dimethoxyphenyl)-2-(4-ethyl-2,3-dioxopiperazine-1-carboxamido)acetamido)-2-hydroxy-3,4-dihydro-2H-benzo[e][1,2]oxaborinine-8-carboxylic acid], the MIC in test [1] and in test [2] was 128 to 256 mg/L (≈ 225 to 450 µM) in each case. Further, at E. coli PBP3, the EC50 lay in the range of 30 to 500 µM.
In the case of `CCN1CCN(C(=O)C[C@H](N)C(=O)N[C@H]2Cc3cccc(C(=O)O)c3OB2O)C(=O)C1=O` [Example 19, (R)-3-((S)-2-amino-4-(4-ethyl-2,3-dioxopiperazin-1-yl)-4-oxobutanamido)-2-hydroxy-3,4-dihydro-2H-benzo[e][1,2]oxaborinine-8-carboxylic acid], the MIC in test [1] and in test [2] was above 512 mg/L each time.
Take `CCN1CCN(C(=O)NCC2(C(=O)N[C@H]3Cc4cccc(C(=O)O)c4OB3O)CNC2)C(=O)C1=O` [Example 53, (R)-3-(3-((4-ethyl-2,3-dioxopiperazine-1-carboxamido)methyl)azetidine-3-carboxamido)-2-hydroxy-3,4-dihydro-2H-benzo[e][1,2]oxaborinine-8-carboxylic acid, trifluoroacetic acid salt]: the MIC in test [1] is above 512 mg/L.
`CCN1CCN(C(=O)NC(C(=O)N[C@H]2Cc3cccc(C(=O)O)c3OB2O)c2nsc(N)n2)C(=O)C1=O` (stereo partly drawn) [Example 10, (3R)-3-(2-(5-amino-1,2,4-thiadiazol-3-yl)-2-(4-ethyl-2,3-dioxopiperazine-1-carboxamido)acetamido)-2-hydroxy-3,4-dihydro-2H-benzo[e][1,2]oxaborinine-8-carboxylic acid]: the MIC in the test with E. coli AG100A is 2 to 4 µg/mL; in the test with E. coli 901C it was 0.5 to 1 µg/mL; in the test with K. pneumoniae UMM, 8 to 16 µg/mL; with E. coli ATCC 25922, 8 to 16 µg/mL; in test [1], 8 to 16 mg/L (≈ 15.1 to 30.1 µM); in the test on E. coli AG100, 32 to 64 µg/mL. In addition, the MIC in test [2] lay within 8 to 16 mg/L (≈ 15.1 to 30.1 µM).
Turning to `CCN1CCN(C(=O)N2C[C@H](O)C[C@@H]2C(=O)N[C@H]2Cc3cccc(C(=O)O)c3OB2O)C(=O)C1=O` [Example 28, (R)-3-((2R,4R)-1-(4-ethyl-2,3-dioxopiperazine-1-carbonyl)-4-hydroxypyrrolidine-2-carboxamido)-2-hydroxy-3,4-dihydro-2H-benzo[e][1,2]oxaborinine-8-carboxylic acid], the MIC in test [1] and in test [2] was above 512 mg/L each time.
